Experiments:
[1] = system: mouse embryonic neuron cells; assay: ROS levels after TBHP challenge in neurons; assay type: cell-based; conditions: 100 μM drug, then 10 μM TBHP; normalized with TBHP-positive control
Procedure: (§1) ROS were measured in neuron and MDM cells with the probe DCFDA (dichlorofluorescin diacetate, abcam, Cambridge, MA). Cells were seeded on black, clear-bottomed 96-well plates. After cells were pre-cultured with different treatments, the media were removed and the cells were washed with 1× buffer (supplied with the kit). Cells were incubated for 45 min in 1× buffer containing 25 μM DCFDA at 37 °C. DCF production was measured by fluorescence spectroscopy with excitation wavelength at 485 nm and emission wavelength at 535 nm. In this study, the cells were treated with increasing concentrations of free DTG, nano-DTG, and various vehicle, positive, and negative controls to compare ROS generation and lactate dehydrogenase (LDH)-based cytotoxicity generated by such treatments. […] TBHP (tert-butyl hydroperoxide; 10 μM) and PBS were used as the positive and negative controls, respectively. The vehicle control for nanoformulated DTG was composed of poloxamer micelles without the drug. […] Specifically, cells (both MDM and neurons) were treated for 2 h with various vehicle or drug concentrations. Then, cells were washed and new media was added, and after 24-h culture, cells were challenged with TBHP for 2 h, followed by fluorescence-based ROS measurements.

[2] = system: mouse embryonic neuron cells; assay: Cellular uptake of DTG in neurons (LC-MS/MS MRM); assay type: in vitro ADME; conditions: treated with 100 μM
Source text: Cycle time was 150 ms for each transition.

human MDM [3] = assay: ROS levels after TBHP challenge in MDM; assay type: cell-based; conditions: 10 to 100 μM drug, then 10 μM TBHP
Procedure: as §1

[4] = Plasma concentration after intramuscular injection of free DTG; assay type: in vivo, mice; conditions: single free DTG injection, 45 mg/kg
[5] = system: mouse embryonic neuron cells; assay: ROS formation (DCFDA) in neurons; assay type: cell-based; conditions: administered at 100 and 500 μM
Procedure: as §1

human MDM [6] = assay: ROS formation (DCFDA) in MDM; assay type: cell-based; conditions: 100 μM
Procedure: as §1

neuron and MDM cells = assay: LDH-based cytotoxicity; assay type: cell-based; conditions: 500 μM in the dosing medium
[7] = design: method as in PMID 21716073, PMID 23824675; conditions: HIV-infected adults, ten doses of monotherapy with 50 mg once daily DTG tablets; cited from earlier work
brain metabolome = assay: Brain region-specific global metabolomics (LC-MS) after DTG injections; assay type: in vivo, mice (Balb/cJ); conditions: five brain regions, Fig. 4
Procedure: Brain tissue subregions were extracted as previously described. Briefly, 0.6 mL of cold methanol:H2O (4:1, v/v) were added per 10 mg tissue (solvent volume was adjusted accordingly to tissue weight). Homogenization was performed with glass beads in a homogenizer and sonicated in an ice bath for 10 min. The mixtures were then transferred to 1.5-mL Eppendorf vials and rinsed with additional 200 μL extraction solvent. To precipitate proteins, the samples were incubated for 1 h at − 20 °C, followed by a 15-min centrifugation at 13,000 rpm at 4 °C. The resulting supernatant was evaporated to dryness in a vacuum concentrator. The dry extracts were then reconstituted in acetonitrile:H2O (1:1, v/v), normalized by tissue weight, sonicated for 10 min, and centrifuged for 15 min at 13000 rpm and 4 °C to remove insoluble debris. The supernatants were transferred to HPLC vials and stored at − 80 °C prior to LC-MS analysis.
The extracts were analyzed on a 6550 iFunnel QTOF mass spectrometer coupled with a 1290 UPLC system (Agilent Technologies, Santa Clara, CA). For global metabolomics, a Luna Aminopropyl, 3 μm, 150 mm × 2.0 mm I.D. HILIC column (Phenomenex, Torrance, CA) was used. […]
LC-MS data were converted to mzXML files using Masshunter Acquisition Software (Agilent Masshunter 6.0B). […] The relative quantification of metabolite features was based on extracted ion chromatogram areas. […]

- ROS fold change after TBHP challenge, neurons [1]: 4
- DTG concentration in neurons [2]: 168 ng/10^6 cells
- plasma concentration [4]: up to 11.29 μg/mL
- ROS fold change vs vehicle control, neurons [5]: up to 1.5 times of control
- ROS fold change vs vehicle control, MDM (human MDM [6]): 0.8 times
Compound: C[C@@H]1CCO[C@H]2Cn3cc(C(=O)NCc4ccc(F)cc4F)c(=O)c(O)c3C(=O)N12 [free DTG, dolutegravir]
- ROS response to TBHP challenge, MDM (human MDM [3]): induced ROS formation in a dose-response at higher concentrations (60 to 100 μM)
- cytotoxicity (LDH-based) (neuron and MDM cells): did not show significant cytotoxicity
- steady-state plasma concentration (Cmax) [7]: 3340 ng/mL
- changes of oxidative stress metabolites (ascorbic acid, threonate, GSH, GSSG) vs controls (brain metabolome): statistically significant (p value < 0.05) with the exception of ascorbic acid levels observed in the H

— publication PMC6403019, “Nanoformulated Antiretroviral Therapy Attenuates Brain Metabolic Oxidative Stress” (Molecular Neurobiology, 2018)
